Source: paper PMC7070167, “Cell‐permeable high‐affinity tracers for Gq proteins provide structural insights, reveal distinct binding kinetics and identify small molecule inhibitors” (British Journal of Pharmacology, 2020)
Blank lines part the entries; values can stand above or below the molecule they belong to.

What was measured:
Gq proteins = target: T1, Gq proteins (Homo sapiens, UniProt P50148); assay: Competition binding at human platelet membrane preparations; conditions: for inhibition or modulation of [^3H]PSB‐15900 binding by G protein inhibitors: concentrations up to 100 μM, preincubation for 3 hr
T1 construct: Native cell membrane preparations from rat brain cortex and human blood platelets; host or cells: human platelets (intact suspension or membrane preparation)
T1 sequence (P50148 1-359): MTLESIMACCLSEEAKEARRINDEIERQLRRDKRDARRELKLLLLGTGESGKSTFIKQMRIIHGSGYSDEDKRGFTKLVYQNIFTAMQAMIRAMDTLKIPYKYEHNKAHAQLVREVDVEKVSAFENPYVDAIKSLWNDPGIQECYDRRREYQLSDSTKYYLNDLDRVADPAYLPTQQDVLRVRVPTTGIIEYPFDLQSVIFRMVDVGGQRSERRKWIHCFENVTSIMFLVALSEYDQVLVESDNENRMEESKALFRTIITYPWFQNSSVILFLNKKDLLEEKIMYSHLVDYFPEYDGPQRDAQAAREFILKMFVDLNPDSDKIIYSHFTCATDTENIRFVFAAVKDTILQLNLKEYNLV
Experimental: Apheresis‐purified human thrombocyte‐plasma concentrates were centrifuged (1,000 g at 4°C for 10 min), and the supernatant was decanted and centrifuged again (at 48,400 g, 4°C, for 60 min). The supernatant was kept and used as platelet‐poor plasma for control experiments; the formed pellet was resuspended in buffer 1 (50‐mM Tris–HCl, 5‐mM EDTA, and 150‐mM NaCl) and centrifuged at 48,400 g, 4°C for 60 min. The supernatant was discarded again and the pellet was resuspended in buffer 2 (5‐mM Tris–HCl and 5‐mM EDTA). The cell suspension was homogenized using an Ultra‐Turrax® (IKA Laborechnik, Staufen, Germany) for 1 min at a speed level of 4, subsequently transferred into cryovials, and stored at −80°C before use (the preparation is stable for several months). For radioligand binding assays, 50 μg of protein per vial was used, determined by the method of Bradford (Bio‐Rad Protein Assay).
The experiments were performed in 50‐mM Tris–HCl buffer, pH 7.4. The final assay volume of 200 μl contained 5 μl of test compound in DMSO, 50 μl of [^3H]PSB‐15900 or [^3H]PSB‐16254, respectively, in buffer, 5 nM of final concentration, and 100 μl of human platelet membrane preparation (50 μg of protein) or intact human platelets (7.5 × 10^6 cells/vial). Non‐specific binding was determined in the presence of 5‐μM FR. The incubation was started by the addition of membrane preparation and was performed at 37°C for 1 hr with gentle shaking. It was terminated by rapid vacuum filtration through GF/C glass‐fibre filters using a Brandel 24‐well harvester. The filters were rinsed three times with approximately 3 ml each of ice‐cold Tris–HCl buffer, 50 mM, pH 7.4 containing 0.1% Tween 20 and 0.1% BSA, to separate bound from free radioligand. The filters were punched out and transferred to scintillation vials. Luma Safe® scintillation cocktail (2.5 ml) was added, and after 6 hr of incubation, the samples were counted for 1 min each, using a liquid scintillation counter (counting efficiency 53%). Experiments in the presence of GTP were additionally performed after preincubation of the membrane preparation with GTP for 1 hr. pIC50 and pKi values were calculated using equations for one‐site competition as implemented in GraphPad Prism 6.01 (GraphPad Inc., La Jolla, CA, USA).

[1] = test system: Gq signalling via endogenously expressed M3 receptor; assay: Calcium mobilization assay, carbachol-induced (M3 receptor) in 1321N1 astrocytoma cells; assay type: cell-based, human
Experimental: (§1) The functional activity of YM, FR, and Ebselen as Gq protein inhibitors was determined by assessing their ability to antagonize ADP‐induced calcium mobilization in 1321N1 astrocytoma cells stably transfected with the human P2Y1 receptor, which is a Gq‐coupled receptor. In addition, the compounds' inhibitory effects on Carbachol‐induced calcium mobilization were studied in the same cell line, which endogenously express the Gq‐coupled muscarinic M3 ACh receptor. The assays were performed according to a previously described procedure (Rafehi et al., 2017) using a NOVOstar microplate reader (BMG Labtech, Offenburg, Germany).

[2] = test system: Gq signalling via recombinantly expressed human P2Y1 receptor; assay: Calcium mobilization assay, ADP-induced (P2Y1 receptor) in 1321N1 astrocytoma cells; assay type: cell-based
Experimental: as §1

[3] = test system: Gq signalling (IP1 production) via Dq; assay: IP1 assay in brown preadipocytes expressing Gq-coupled designer GPCR (Dq), CNO; assay type: cell-based, mouse; conditions: Ebselen 50 μM
Experimental: (§2) Intracellular concentrations of the second messenger IP1 in brown preadipocytes were quantified using the HTRF‐IP1 kit (Cisbio Bioassays) following the manufacturer's instructions. […] For ET‐1 experiments, non‐transduced preadipocytes were used. Cells were cultivated for 48 hr in GM (37°C, 5% CO2). For the assay, cells were trypsinized, and cell pellet was washed with PBS. Cell pellet was then resuspended in stimulation buffer containing 50‐mM LiCl and transferred to a 384‐well microtitre plate at a density of 100,000 cells per well in 7 μl of stimulation buffer. After 10 min of incubation, 3.5 μl of stimulation buffer containing inhibitors (50 μM of Ebselen, 1 μM of FR) were added for 1 hr followed by addition of 3.5 μl of stimulation buffer containing agonists (ET‐1, 10 nM; CNO, 10 μM) for 30 min; 3 μl of IP1‐d2 conjugate followed by 3 μl of europium cryptate‐labelled anti‐IP1 antibody dissolved in lysis buffer were added to the cells. After a further dark incubation of 1 hr at room temperature, time‐resolved fluorescence was measured at 620 and 665 nm with the EnSpire (Perkin Elmer) multimode plate reader.

[4] = test system: Gq signalling (IP1 production) induced by ET‐1; assay: IP1 assay in brown preadipocytes, ET-1; assay type: cell-based, mouse; conditions: Ebselen 50 μM pretreatment, ET‐1 10 nM
Experimental: as §2

[5] = test system: primary murine brown adipocytes; assay: Differentiation of primary murine brown adipocytes (Oil Red O, UCP-1, PPARγ); assay type: cell-based, mouse; conditions: Ebselen 50 μM, 9 days
Experimental: Ten‐ to 12‐week‐old pregnant wild‐type C57Bl6/J mice were purchased from Charles River and housed in pathogen‐free environment under a 12‐hr light/12‐hr dark cycle having free access to standard rodent diet and water. Brown adipose tissue (BAT)‐derived mesenchymal stem cells were isolated from interscapular BAT of newborn wild‐type mice and further cultured as previously described (Klepac et al., 2016). Specifically, 170,000 cells per well were seeded in growth medium (GM; DMEM supplemented with 10% FBS and 1% penicillin–streptomycin mixture from Sigma‐Aldrich) in a six‐well plate (Day −4); 48 hr later (Day −2), GM was replaced by differentiation medium (DM), which is GM supplemented with 20‐nM insulin and 1‐nM triiodothyronine. At Day 0, cells were treated for 48 hr with BAT induction medium (DM supplemented with 0.5‐mM isobutylmethylxanthine and 1‐μM dexamethasone). For the next 5 days, cells were treated with DM that was replenished every second day. The indicated treatments were added from Day −2 to Day +7 for 9 days to the media, endothelin‐1 (ET‐1; Tocris, 10 nM), or Ebselen (50 μM). Ebselen was added 3 hr prior to ET‐1 treatment. On Day +7, differentiation of cells into mature adipocytes was analysed using Oil Red O staining of lipid droplets. Mature brown adipocytes were washed with PBS and then fixed in 4% paraformaldehyde. […]

- modulation of [^3H]PSB‐15900 binding by nucleotides (Gq proteins; 100 μM and 1 mM, human platelet membranes, 5 nM radioligand): not allosterically modulated
SMILES: Nc1nc2c(ncn2[C@@H]2O[C@H](COP(=O)(O)OP(=O)(O)OP(=O)(O)O)[C@@H](O)[C@H]2O)c(=O)[nH]1 [GTP]

SMILES: N[C@@H](CS)C(=O)N1CCn2cc(-c3ccccc3)nc2[C@@H]1CC1CCCCC1 [BIM‐46174]
- inhibition or modulation of [^3H]PSB‐15900 binding by G protein inhibitors (Gq proteins): did not show any inhibition or modulation

- Ki (Gq proteins; versus [^3H]PSB‐15900 (5 nM), human platelet membranes, 37°C, read-out: pKi (converted)): 9.33 µM
- IC50 ([1]; Homo sapiens, versus Carbachol (EC80), M3 receptor, read-out: pIC50, inhibition of calcium mobilization (converted)): 4.37 µM
- IC50 ([2]; Homo sapiens, versus ADP (EC80), P2Y1 receptor, 1321N1 astrocytoma cells, read-out: pIC50, inhibition of calcium mobilization (converted)): 2340 nM
SMILES: O=c1c2ccccc2[se]n1-c1ccccc1 [Ebselen]
- extent of block of carbachol‐induced calcium mobilization [1]: completely blocked
- extent of block of ADP‐induced calcium mobilization ([2]; recombinant 1321N1 astrocytoma cells): completely blocked
- effect on CNO‐induced increase in IP1 levels ([3]; CNO 10 μM, Gq‐DREADD expressing preadipocytes): significantly reduced
- effect on basal IP1 levels ([3]; absence of agonist (Ctrl), acute treatment): did not affect
- effect on ET‐1‐induced IP1 production [4]: attenuated
- effect on differentiation of brown adipocytes [5]: enhanced
- effect on ET‐1‐induced inhibition of brown adipogenesis ([5]; ET‐1 10 nM): rescued

SMILES: N[C@@H](CSSC[C@H](N)C(=O)N1CCn2cc(-c3ccccc3)nc2[C@@H]1CC1CCCCC1)C(=O)N1CCn2cc(-c3ccccc3)nc2[C@@H]1CC1CCCCC1 [BIM‐46187]
- inhibition or modulation of [^3H]PSB‐15900 binding by G protein inhibitors (Gq proteins): did not show any inhibition or modulation
